# Values of other authors in paper PMC7395068, “The evolution of strategies to minimise the risk of human drug-induced liver injury (DILI) in drug discovery and development” (Archives of Toxicology, 2020).
# Where two headings read alike, the source gives them in different places.
# What was measured:
# [1] = cited from earlier work
# human hepatocytes = settings: In vitro Assay; ref Xu 2008; cited from earlier work
# [2] = system: HepG2 C3A spheroid, BSEP, Glu/Gal in HepG2 cells, bioactivation; settings: In vitro Assay; ref Williams 2019; cited from earlier work
# [3] = cited from earlier work; remark: listed apart in the source
# [4] = system: THLE-Null and THLE-3A4 cells; settings: In vitro Assay; ref Gustafsson 2014; cited from earlier work
# [5] = system: HepG2 cells, primary human hepatocytes; settings: In vitro Assay; ref Garside 2014; cited from earlier work
# [6] = cited from earlier work; remark: listed apart in the source
# PHH = settings: In vitro Assay; ref Proctor 2017; cited from earlier work
# hLiMTs = settings: In vitro Assay; ref Proctor 2017; cited from earlier work
# [7] = system: primary human hepatocytes, NIH3T3 fibroblasts, BSEP, CYP3A4; settings: In vitro Assay; ref Schadt 2015; cited from earlier work
# PHH spheroids = settings: In vitro Assay; ref Vorrink 2018; cited from earlier work
# rBsep = settings: In vitro Assay; ref Dawson 2012; cited from earlier work
Compound,"DILI +VE (5-8), DILI -VE (-4) ([1]; ref Chen 2016)",DILI severity category ([1]; ref Chen 2016),Bayesian Machine Learning [2],In vivo DILI ([3]; ref Garside 2014),In vivo DILI ([3]; ref Gustafsson 2014),In vivo DILI ([3]; ref Williams 2019),THLE-Null [4],THLE-Null/3A4 [4],Cluster 1-6 +VE Assay [5],PHH ATP <100uM (PHH),hLiMTs ATP <100uM (hLiMTs),In vivo DILI ([3]; ref Proctor 2017),also measured
Cc1ccc(C(=O)c2ccc(CC(=O)O)n2C)cc1 [tolmetin],+VE,vLess-DILI-Concern,+VE,+VE,+VE,+VE,-VE,-VE,+VE,,,,Structural based (HCI) (human hepatocytes): +VE; In vivo DILI ([3]; ref Xu 2008): +VE
CC(C)NCC(O)COc1ccc(COCCOC(C)C)cc1 (stereo not shown) [bisoprolol],,,,,,,,,,,,,"DILI severity category ([1]; LTKB DILIrank category, ref Chen 2016): Ambiguous DILI-concern; DILI +VE (5-8), DILI -VE (-4) ([1]; binary DILI call, ref Chen 2016): -VE; DILI Score (FDA) (1-8) ([6]; FDA drug labelling score, ref Chen 2011): 3"
C[C@H]1O[C@H](O[C@H]2[C@H](O)[C@@H](O)[C@@H](O[C@H]3[C@H](O)[C@@H](O)C(O)O[C@@H]3CO)O[C@@H]2CO)[C@H](O)[C@@H](O)[C@@H]1N[C@H]1C=C(CO)[C@@H](O)[C@H](O)[C@H]1O (stereo partly shown) [acarbose],,,,,,,,,,,,,"DILI +VE (5-8), DILI -VE (-4) ([1]; in vivo): +VE; DILI severity category ([1]; in vivo): vMost-DILI-Concern; DILI Score (FDA) (1-8) ([6]; in vivo): 5"
O=C(O)COc1ccc(C(=O)c2cccs2)c(Cl)c1Cl [tienilic acid],+VE,vMost-DILI-Concern,+VE,+VE,,+VE,,,+VE,-VE,-VE,+VE,In vivo DILI ([3]; […]): +VE
Cc1ccc(-c2cc(C(F)(F)F)nn2-c2ccc(S(N)(=O)=O)cc2)cc1 [celecoxib],+VE,vLess-DILI-Concern,+VE,+VE,+VE,+VE,+VE,,+VE,+VE (IC50 threshold of 100 µM),+VE (IC50 threshold of 100 µM),+VE,Cellular toxicity (3T3 cells) [7]: +VE; GSH adduct HML [7]: -VE; Hepatocyte cellular toxicity [7]: -VE; MitoTox 3T3 [7]: -VE; TDI CYP3A4 [7]: -VE; hBSEP inhibition [7]: -VE; hLiMTs ATP <20 x Cmax (PHH spheroids): +VE (IC20 < 20 × Cmax.tot cut-off); In vivo DILI ([3]; ref Schadt 2015): +VE; In vivo DILI ([3]; ref Vorrink 2018): +VE
CN(C)CCCN1c2ccccc2CCc2ccc(Cl)cc21 [clomipramine],,,+VE,,,,,,+VE,,,,Structural based (HCI) (human hepatocytes): -VE
Cc1onc(-c2c(F)cccc2Cl)c1C(=O)N[C@@H]1C(=O)N2[C@@H]1SC(C)(C)[C@@H]2C(=O)O [flucloxacillin],,,+VE,,+VE,+VE,-VE,-VE,,+VE (IC50 threshold of 100 µM),-VE,+VE,In vivo DILI ([3]; ref Dawson 2012): +VE; Inhibition of rBsep cutoff<1& cmax u>.2 (rBsep): -VE; Inhibition of rBsep cutoff<3 (rBsep): -VE
O=C(O)Cc1csc(-c2ccc(Cl)cc2)n1 [fenclozic acid],+VE,vMost-DILI-Concern,+VE,+VE,+VE,+VE,-VE,-VE,+VE,,,,In vivo DILI ([3]; ref Dawson 2012): +VE; Inhibition of rBsep cutoff<1& cmax u>.2 (rBsep): -VE; Inhibition of rBsep cutoff<3 (rBsep): -VE
